Measurements from ChEMBL document CHEMBL1148099, “New myrsinol-related polyfunctional pentacyclic diterpene esters from roots of Euphorbia prolifera” (J Nat Prod, 1995).

Assay: Skin irritant activity in mouse ear assessed as irritant units per ear after 24 hrs
Type: ADME, tissue-based
Conditions: topical_or_ocular

| SMILES | Activity [µg] |
| --- | --- |
| CCC(=O)OC1C(C)CC2(OC(C)=O)C1[C@@H](OC(C)=O)[C@@]13CO[C@@](C)(C2OC(C)=O)C1C1C(C[C@]1(C)OC(C)=O)C(OC(=O)C(C)C)C3=O (some centres not stated) | > 1000 |
| CCC(=O)OC1C(C)CC2(OC(C)=O)C1[C@@H](OC(C)=O)[C@@]13CO[C@@](C)(C2OC(C)=O)C1C1C(C[C@]1(C)OC(C)=O)C(OC(=O)c1ccccc1)C3=O (some centres not stated) | > 1000 |
